Laboratory results published in article PMC7139549, “TLD1433 Photosensitizer Inhibits Conjunctival Melanoma Cells in Zebrafish Ectopic and Orthotopic Tumour Models” (Cancers, 2020).

Assays:
[1] = system: CRMM1 cells injected into the Duct of Cuvier of zebrafish embryos; experiment: Zebrafish ectopic CM tumour model, CRMM1; type: in vivo, Zebrafish (Danio rerio); conditions: for PI (Fluorescence Intensity) / PI (Tumour Area) / Relative Tumour Burden as Measured by Fluorescence Intensity / Tumour Area: CRMM1, Ectopic Model; for PI (Fluorescence Intensity) / PI (Tumour Area): 0 vs 114 J.cm^−2
Description: The zebrafish ectopic conjunctival melanoma tumour model has been described previously. In this model, around 200 fluorescent CM cells are injected into the Duct of Cuvier at 2 dpf, and then disseminate through the blood circulation and grow in the head and tail. To establish the orthotopic tumour model, around 100 red, (td)Tomato fluorescent CRMM1 or CRMM2 cells were injected RO at 2 dpf into tg(Fli:GFP/Casper), endothelial reporter transgenic zebrafish with green fluorescent vasculature and examined by fluorescent microscopy at day 1 and 4 after engraftment (Figure 6A). Tumour expansion at the injection site was measured as fluorescence intensity and tumour area.
For cancer cell injection, two days post-fertilization (dpf), dechorionated zebrafish embryos were anaesthetized with 0.003% tricaine (Sigma) and plated on a 10 cm Petri dish covered with 1.5% of solidified agarose. CRMM1 and CRMM2 cells were suspended in PBS containing 2% polyvinylpyrrolidone (PVP; Sigma-Aldrich) with a concentration of 50,000 cells/µL and loaded into borosilicate glass capillary needles (1 mm O.D. × 0.78 mm I.D.; Harvard Apparatus). In the ectopic model, 200 (td)Tomato fluorescent CM cells were injected into the Duct of Cuvier or at 2 dpf, which led to dissemination through the blood circulation and outgrowth in the head and tail. In orthotopic tumour model, 100 (td)Tomato fluorescent CRMM1 or CRMM2 cells were injected RO in 2 dpf embryos using a Pneumatic Picopump and a manipulator (WPI). After injection, the embryos were incubated in a 34 °C incubator. Images were acquired at 1-, 2- and 4-days post injection (dpi) with a Leica M165 FC stereo fluorescence microscope. Tumor growth was quantified by calculating the total fluorescence intensity and area with the ZF4 pixel counting program (Leiden). Each experiment was performed at least 3 times with a group size of >30 embryos.
Fluorescent CRMM1 and CRMM2 cells were injected at 2 dpf into the Duct of Cuvier (ectopic model) and behind the eye (orthotopic model) and TLD1433 was delivered by WA, IV and RO administration with or without a light treatment as described in 4.8. For the WA administration, the 4.6 nM TLD1433 solution was added to the tumour cells injected zebrafish at 2.5, 3.5, 4.5, 5.5 dpf and maintained for 12 h. At 3, 4, 5, 6 dpf, the fish water was refreshed, and after 1 h, embryos were exposed to green light for 90 min (21 mW/cm^2, 114 J/cm^2, 520 nm). For the IV and RO administration, 1 nL of 2.3 mM TLD1433 solution was injected via the dorsal vein or the RO site at 3, 4, 5, 6 dpf. After 1 h interval, the embryos were exposed to green light for 90 min (21 mW/cm^2, 114 J/cm^2, 520 nm). After treatment, the embryos images were acquired with a Leica M165 FC stereo fluorescence microscope. Tumor growth was quantified by calculating the total fluorescence intensity and area with the ZF4 pixel counting program (Leiden). Each experiment was performed at least 3 times with a group size of >30 embryos.

[2] = system: CRMM1 engrafted cells in zebrafish orthotopic model; experiment: In situ TUNEL assay, CRMM1 orthotopic zebrafish model; type: in vivo, Zebrafish (Danio rerio); conditions: RO 2.3 mM
Description: In situ TUNEL assay on fixed embryos was used to detect TLD1433 induced apoptosis in zebrafish CRMM1 and CRMM2 orthotopic tumour models at 4 dpi after light activation of 2.3 mM TLD1433, administrated by retro orbital injection. The DNA strand breaks in apoptotic tumour cells were stained with fluorescein and visualized as a green signal.
Figure 10 TUNEL assay of in CRMM1 and CRMM2 orthotopic model after RO of TLD1433. Red fluorescent CRMM1 (A) and CRMM2 (B) cells were injected at 2dpf behind the ZF eye and divided into four groups for drug treatment. RO administration of vehicle control and TLD1433 was performed as described in Figure 9C,E. After dark or light exposure (21 mW/cm^2, 114 J.cm^−2, 520 nm) embryos were fixed and TUNEL staining was performed. Representative images of embryos are shown in this figure. (A,B) In TLD1433 light groups nuclear DNA fragmentation by nucleases is detected by co-localization of green (DNA fragments) and red signal of engrafted CM cells, depicted as yellow signal and marked by white arrows. In control dark, control light, TLD1433 dark, there are no positive green apoptotic tumour cells observed. […] Experiment was performed 3 times with a group size of 10 embryos.
The zebrafish larvae were fixed overnight with 4% PFA at 4 °C. Embryos were washed in PBST for 5 min and dehydrated by a graded methanol series until reaching 100% methanol. […]

[3] = Intravenous (1 nL of 2.3 mM), Light Dose 0 J.cm^−2, vs control dark group (100%)
[4] = Intravenous (1 nL of 2.3 mM), Light Dose 114 J.cm^−2, vs control dark group (100%)
[5] = Water (4.6 nM), Light dose 0 J.cm^−2, vs control dark group (100%)
[6] = Water (4.6 nM), Light dose 114 J.cm^−2, vs control dark group (100%)
[7] = CRMM1, ectopic model, IV 2.3 mM, light 114 J.cm^−2
[8] = CRMM1, ectopic model, RO 2.3 mM, green light 114 J.cm^−2

Cc1ccnc(-c2cc(C)ccn2)c1.Cc1ccnc(-c2cc(C)ccn2)c1.[Cl-].[Cl-].[Ru+2].c1csc(-c2ccc(-c3ccc(-c4nc5c6cccnc6c6ncccc6c5[nH]4)s3)s2)c1 [TLD1433]
PI (Fluorescence Intensity) ([1]; Intravenous (1 nL of 2.3 mM)): 1.6
PI (Tumour Area) ([1]; Intravenous (1 nL of 2.3 mM)): 2.2
Relative Tumour Burden as Measured by Fluorescence Intensity [1, 3]: 94%
Tumour Area [1, 3]: 102%
Relative Tumour Burden as Measured by Fluorescence Intensity [1, 4]: 59%
Tumour Area [1, 4]: 46%
PI (Tumour Area) ([1]; Retro orbital (1 nL of 2.3 mM)): 2.4
Tumour Area ([1]; Retro orbital (1 nL of 2.3 mM), Light dose 0 J.cm^−2, vs control dark group (100%)): 85%
Tumour Area ([1]; Retro orbital (1 nL of 2.3 mM), Light dose 114 J.cm^−2, vs control dark group (100%)): 36%
PI (Fluorescence Intensity) ([1]; Retro-orbital (1 nL of 2.3 mM)): 1.6
Relative Tumour Burden as Measured by Fluorescence Intensity ([1]; Retro-orbital (1 nL of 2.3 mM), Light Dose 0 J.cm^−2, vs control dark group (100%)): 85%
Relative Tumour Burden as Measured by Fluorescence Intensity ([1]; Retro-orbital (1 nL of 2.3 mM), Light Dose 114 J.cm^−2, vs control dark group (100%)): 53%
PI (Fluorescence Intensity) ([1]; Water (4.6 nM)): 1.0
PI (Tumour Area) ([1]; Water (4.6 nM)): 1.0
Relative Tumour Burden as Measured by Fluorescence Intensity [1, 5]: 91%
Tumour Area [1, 5]: 103%
Relative Tumour Burden as Measured by Fluorescence Intensity [1, 6]: 89%
Tumour Area [1, 6]: 99%
inhibition of tumour area [1, 7]: 54%
inhibition of tumour fluorescence intensity [1, 7]: 41%
diminished fluorescence intensity [1, 8]: 47%
diminished tumour area [1, 8]: 64%
effect on tumour burden (in words) ([1]; CRMM1, ectopic model, WA at the MTD (4.6 nM), light 114 J.cm^−2): did not inhibit tumour burden
TUNEL apoptosis of engrafted cells (in words) ([2]; dark, 4 dpi): no positive green signal detected
TUNEL apoptosis of engrafted cells (in words) ([2]; light 114 J.cm^−2, 4 dpi): induced CRMM1 and CRMM2 cell apoptosis
